# Test results: PMC12369479 (Journal of Experimental Botany, 2025)
# What was measured:
# ZmADK2 [1] = biological target: T1, ZmADK2 (Zea mays, UniProt B4FFH8, T4S); experiment: ADK activity, coupled reaction with PK and LDH; type: biochemical; settings: ZmADK2; 100 µM substrate; 10 mM ATP; pH 7.5; 30 °C
# Protocol: (§1) Substrate analogs were purchased from Sigma-Aldrich (www.sigmaaldrich.com). The ADK activity was measured spectrophotometrically on an Agilent 8453 UV-Vis spectrophotometer (www.agilent.com) at 30 °C using a coupled reaction with pyruvate kinase (PK) and lactate dehydrogenase (LDH) (www.sigmaaldrich.com) ([Blondin et al., 1994]). In this assay, PK converts ADP produced by ADK and phosphoenolpyruvate (PEP) to pyruvate. Subsequently, LDH then converts pyruvate to lactate using the coenzyme NADH, with the conversion monitored at 340 nm. The reaction was conducted in 50 mM Tris–HCl buffer at pH 7.5, containing 50 mM KCl, 6 mM MgCl2, 300 µM PEP, 200 µM NADH, 10 mM ATP, 2 U of PK, and 2.5 U of LDH, using various nucleoside substrates. Kinetic constants were determined using GraphPad Prism 8.0 software (www.graphpad.com). Each measurement was performed six times using repetitive purified enzymes. The activities of all five ADKs were also measured by HPLC ([Moffatt et al., 1991]). The reaction mixture comprised 50 mM Tris–HCl pH 7.5, 5 mM MgCl2, 0.5 mM DTT, 30 mM NaF, 5 mM ATP, 40 µM substrate, and 2–150 ng of purified ADK, depending on the isoform. The reaction was incubated at 30 °C for up to 1 h. […] Similarly, the conversion of cytokinin ribosides to monophosphates was followed on a LiChrosphere 60 RP-Select B (5 µm) LiChroCART column 125-4 column equilibrated with 10 mM triethylamine at pH 5.4 plus 10% methanol, and stepwise eluted with 100% methanol.
# ZmADK2 [2] = biological target: T1, ZmADK2; experiment: Binding affinity by microscale thermophoresis (MST); settings: MST
# Protocol: (§2) The microscale thermophoresis (MST) method was used to determine the binding affinity of various ribosides for ZmADK2 and PpADK1. Proteins were fluorescently labeled with RED-tris-NTA dye (www.nanotemper-technologies.com) using a 1:1 dye/protein molar ratio. The labeled protein was adjusted to 100–300 nM in 50 mM HEPES buffer pH 7.5, 1 mM MgCl2, and 0.2% Tween. Measurements were performed in premium capillaries on a Monolith NT.115 instrument at 30 °C with 5 s/30 s/5 s laser off/on/off times, respectively, with continuous sample fluorescence recording. Thermal stability was measured by nano-differential scanning fluorimetry on a Prometheus NT.48 instrument (www.nanotemper-technologies.com) in various buffers covering a pH (7.0–9.5) and temperature range (25–95 °C), with a heating rate of 1 °C min^–1, and using NT melting control software. Protein unfolding was measured by detecting the temperature-induced change in tryptophan fluorescence intensity at emission wavelengths of 330±5 nm and 350±5 nm. The melting temperature (Tm) was deduced from the maximum of the first derivative of the fluorescence ratios F350/F330.
# ZmADK3 D19A variant = ZmADK3 D19A variant (Zea mays, UniProt A0A1D6E5Z5, D19A); experiment: ADK activity, coupled reaction with PK and LDH; type: biochemical
# Sequence of ZmADK3 D19A variant (A0A1D6E5Z5 entry or part of it D19A): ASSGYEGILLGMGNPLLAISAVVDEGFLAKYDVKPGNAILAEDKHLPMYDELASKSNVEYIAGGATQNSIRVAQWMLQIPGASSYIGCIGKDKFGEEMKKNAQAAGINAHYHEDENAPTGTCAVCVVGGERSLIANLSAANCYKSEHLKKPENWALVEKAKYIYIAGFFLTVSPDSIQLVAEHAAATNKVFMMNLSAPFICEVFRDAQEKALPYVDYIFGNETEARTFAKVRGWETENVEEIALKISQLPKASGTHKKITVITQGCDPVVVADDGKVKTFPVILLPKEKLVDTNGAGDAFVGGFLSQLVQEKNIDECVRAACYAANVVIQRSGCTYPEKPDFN
# Protocol: (§3) All ZmADK3 mutants were cloned by 30 cycle PCRs using tail-to-tail oriented phosphorylated primers, with the mutation being located at the 5′ end of one of the primers. The following mutants were cloned using the primers given in Supplementary Table S1: D19A, R132A, N222A, E225A, N295A, and D299A. The products were treated with DpnI restriction enzyme, gel purified, and ligated using T4 DNA ligase (www.thermofisher.com). Clones were transformed into T7 express I^qE. coli competent cells.
# as §1
# ZmADK3 N295A variant = ZmADK3 N295A variant (Zea mays, UniProt A0A1D6E5Z5, N295A); experiment: ADK activity, coupled reaction with PK and LDH; type: biochemical; settings: 100 µM Ado, 10 mM ATP, 30 °C
# Sequence of ZmADK3 N295A variant (A0A1D6E5Z5 entry or part of it N295A): as the sequence (A0A1D6E5Z5 entry or part of it D19A) above, with A18D, N294A counted along it
# Protocol: as §3, §1
# ZmADK3 E225A variant = ZmADK3 E225A variant (Zea mays, UniProt A0A1D6E5Z5, E225A); experiment: ADK activity, coupled reaction with PK and LDH; type: biochemical; settings: 100 µM Ado, 10 mM ATP, 30 °C
# Sequence of ZmADK3 E225A variant (A0A1D6E5Z5 entry or part of it E225A): as the sequence (A0A1D6E5Z5 entry or part of it D19A) above, with A18D, E224A counted along it
# Protocol: as §3, §1
# ZmADK3 D299A variant = ZmADK3 D299A variant (Zea mays, UniProt A0A1D6E5Z5, D299A); experiment: ADK activity, coupled reaction with PK and LDH; type: biochemical; settings: 100 µM Ado, 10 mM ATP, 30 °C
# Sequence of ZmADK3 D299A variant (A0A1D6E5Z5 entry or part of it D299A): as the sequence (A0A1D6E5Z5 entry or part of it D19A) above, with A18D, D298A counted along it
# Protocol: as §3, §1
# ZmADK3 N222A variant = ZmADK3 N222A variant (Zea mays, UniProt A0A1D6E5Z5, N222A); experiment: ADK activity, coupled reaction with PK and LDH; type: biochemical; settings: 100 µM Ado, 10 mM ATP, 30 °C
# Sequence of ZmADK3 N222A variant (A0A1D6E5Z5 entry or part of it N222A): as the sequence (A0A1D6E5Z5 entry or part of it D19A) above, with A18D, N221A counted along it
# Protocol: as §3, §1
# ZmADK3 R132A variant = ZmADK3 R132A variant (Zea mays, UniProt A0A1D6E5Z5, R132A); experiment: ADK activity, coupled reaction with PK and LDH; type: biochemical; settings: 100 µM Ado, 10 mM ATP, 30 °C
# Sequence of ZmADK3 R132A variant (A0A1D6E5Z5 entry or part of it R132A): as the sequence (A0A1D6E5Z5 entry or part of it D19A) above, with A18D, R131A counted along it
# Protocol: as §3, §1
# PpADK1 [3] = biological target: T2, PpADK1 (Physcomitrium patens, UniProt O49923); experiment: Binding affinity by microscale thermophoresis (MST); set-up: species or system Physcomitrella patens; settings: 50 mM HEPES pH 7.5, 1 mM MgCl2, first or only binding event, read-out: KD
# T2 construct: made in house; host or cells: E. coli T7 Express Iq
# T2 sequence (O49923 whole entry): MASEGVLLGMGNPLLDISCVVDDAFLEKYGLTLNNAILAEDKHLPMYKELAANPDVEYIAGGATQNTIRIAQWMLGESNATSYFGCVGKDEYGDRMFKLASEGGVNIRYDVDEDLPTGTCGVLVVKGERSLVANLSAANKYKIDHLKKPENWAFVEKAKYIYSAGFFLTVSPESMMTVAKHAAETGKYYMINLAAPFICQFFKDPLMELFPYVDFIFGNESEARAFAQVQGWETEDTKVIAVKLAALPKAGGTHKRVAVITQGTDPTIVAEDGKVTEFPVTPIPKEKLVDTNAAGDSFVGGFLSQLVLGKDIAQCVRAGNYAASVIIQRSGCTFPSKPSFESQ
# Protocol: as §2
# PpADK1 [4] = biological target: T2, PpADK1; experiment: ADK activity, coupled reaction with PK and LDH; type: biochemical, Physcomitrella patens; settings: 100 µM substrate, 10 mM ATP, pH 7.5, 30 °C
# Protocol: as §1
# all five ADKs = experiment: ADK kinetics, coupled reaction (summary for all isoforms); type: biochemical, Zea mays, Physcomitrella patens; settings: range over all five ADKs
# Protocol: Substrate analogs were purchased from Sigma-Aldrich (www.sigmaaldrich.com). The ADK activity was measured spectrophotometrically on an Agilent 8453 UV-Vis spectrophotometer (www.agilent.com) at 30 °C using a coupled reaction with pyruvate kinase (PK) and lactate dehydrogenase (LDH) (www.sigmaaldrich.com) ([Blondin et al., 1994]). In this assay, PK converts ADP produced by ADK and phosphoenolpyruvate (PEP) to pyruvate. Subsequently, LDH then converts pyruvate to lactate using the coenzyme NADH, with the conversion monitored at 340 nm. The reaction was conducted in 50 mM Tris–HCl buffer at pH 7.5, containing 50 mM KCl, 6 mM MgCl2, 300 µM PEP, 200 µM NADH, 10 mM ATP, 2 U of PK, and 2.5 U of LDH, using various nucleoside substrates. Kinetic constants were determined using GraphPad Prism 8.0 software (www.graphpad.com). Each measurement was performed six times using repetitive purified enzymes. The activities of all five ADKs were also measured by HPLC ([Moffatt et al., 1991]). The reaction mixture comprised 50 mM Tris–HCl pH 7.5, 5 mM MgCl2, 0.5 mM DTT, 30 mM NaF, 5 mM ATP, 40 µM substrate, and 2–150 ng of purified ADK, depending on the isoform. The reaction was incubated at 30 °C for up to 1 h. […]
# T1 sequence (B4FFH8 1-342 T4S): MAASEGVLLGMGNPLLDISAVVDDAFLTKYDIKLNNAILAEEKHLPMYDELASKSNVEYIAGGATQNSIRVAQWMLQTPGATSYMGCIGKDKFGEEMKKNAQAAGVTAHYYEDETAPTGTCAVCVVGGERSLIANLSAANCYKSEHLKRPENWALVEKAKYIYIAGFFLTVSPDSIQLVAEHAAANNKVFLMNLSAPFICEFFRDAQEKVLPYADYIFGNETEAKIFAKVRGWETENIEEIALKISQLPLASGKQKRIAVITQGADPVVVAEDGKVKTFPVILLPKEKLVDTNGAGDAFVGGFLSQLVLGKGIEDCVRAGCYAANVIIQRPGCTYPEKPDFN
smiles,measurement,setting,value
"Nc1ncnc2c1ncn2[C@@H]1O[C@H](CO)[C@@H](O)[C@H]1O [Ado, adenosine]",Specific activity,ZmADK2 [1],40.3±1.4 nmol s^–1 mg^–1
same,Kd,"ZmADK2 [2]; KD, 50 mM HEPES pH 7.5, 1 mM MgCl2, first or only binding event",0.4 ± 0.14 µM
same,Kd,"ZmADK2 [2]; second KD value, KD(2), second binding event (ATP site)",~1500 µM
same,Kd,"ZmADK2 [2]; second KD value, second binding event (ATP site)",1480 ± 230 µM
same,reduction in specific activity,"ZmADK3 D19A variant; D19A variant of ZmADK3 vs WT, Ado substrate",10 fold
same,Specific activity,"ZmADK3 D19A variant; D19A, 100 µM Ado, 10 mM ATP, 30 °C",3.3±0.4 nkat mg^–1
same,Specific activity,ZmADK3 N295A variant,10.1±0.1 nkat mg^–1
same,Specific activity,ZmADK3 E225A variant,1.9±0.4 nkat mg^–1
same,Specific activity,ZmADK3 D299A variant,1.8±0.1 nkat mg^–1
same,Specific activity,ZmADK3 N222A variant,13.4±0.7 nkat mg^–1
same,Specific activity,ZmADK3 R132A variant,7.4±0.3 nkat mg^–1
same,Kd,PpADK1 [3],0.7 µM
same,Specific activity,PpADK1 [4],5.09±0.26 nmol s^–1 mg^–1
same,Km,all five ADKs,0.5 to 0.7 µM
